Reference: ChEMBL document CHEMBL3507680, “University of Dundee, Gates Library screen for HepG2 cell viability”

assay: Human HepG2 cell viability assay in 384 well format; format: toxicity, cell-based; design: dose 125 nL, time 70.5 hour; cytotoxicity at 70.5 h: concentration not given beside the values; settings: HepG2 cells, read-out: Inhibition

| SMILES | cytotoxicity at 70.5 h |
| --- | --- |
| Fc1cnc(N2C[C@@H]3COC[C@]3(COc3ccccn3)C2)nc1 | 19.5% |
| COc1cnc(C2(O)CCN(C(=O)c3ccncc3)CC2)c(OC)n1 | -4.69% |
| CCOCC1CN(C(=O)c2cccs2)Cc2nn(C)cc21 (stereo not drawn) | -2.33% |
| CC(C)c1nnc(N2C[C@@H]3CC[C@H](C2)N(Cc2ccccc2)C3)s1 | -4.82% |
| CN1CCN(C)C2(CCN(Cc3ccsc3)CC2)C1=O | 16.8% |
| Cc1noc(-c2ccc(N3CCC[C@H]3CO)nc2)n1 | -0.652% |
| CCN(C(=O)Cn1cc(Cl)cn1)c1ccccc1 | 5.93% |
| Cc1nc(C2CCCN2C(=O)Cc2cccc(F)c2)nc(O)c1C (stereo not drawn) | 21.4% |
| O=C(CSc1ccc(F)cc1)NS(=O)(=O)c1ccc2c(c1)OCCO2 | 6.32% |
| COc1ccccc1CC(C)CC(=O)N(C)Cc1cc(C)on1 (stereo not drawn) | 2.26% |
| Cc1cnn(CC2CCCN2C(=O)CCc2c(C)noc2Cl)c1 (stereo not drawn) | -8.81% |
| N#Cc1ccc(OCC(O)CN2CCC(Cn3cccn3)CC2)cc1 (stereo not drawn) | -3.6% |
| Cc1cccc(N2CCCC2c2nc(C)ncc2CN(C)C)n1 (stereo not drawn) | -4.92% |
| Cc1ccccc1CN1CC[C@H]2C[C@H](C(=O)N(C)C)O[C@H]2C1 | -12.7% |
| O=C(NC1(c2nccs2)CCCC1)c1cc(C2CC2)on1 | -3.31% |
| N#Cc1cccc(C(=O)N2C[C@H]3CC[C@@H]2CN(C(=O)C2CCC2)C3)c1 | -4.08% |
| Cc1n[nH]cc1CNC(C(=O)N1CCCCC1)c1ccccc1 (stereo not drawn) | 3.13% |
| CCC(CO)N(Cc1ccccn1)C(=O)c1ccc(C)c(Cl)c1 (stereo not drawn) | -5.65% |
| Cc1nnc(CN2CCC(Oc3ccc(C)c(C)c3)CC2)o1 | -4.89% |
| CC(C)N1CCC(C(=O)N[C@H](C(=O)O)c2cccc(F)c2F)CC1 | -1.13% |
| CCOc1cccc(C(C)NCc2c(C)nn(C)c2N(C)C)c1 (stereo not drawn) | -8.02% |
| Cc1ccccc1-c1cc(C(=O)N2CCCC(n3ccnc3C)C2)[nH]n1 (stereo not drawn) | 13.3% |
| COc1ncccc1CN1C[C@@H]2COC[C@]2(COCC(=O)N(C)C)C1 | -6.1% |

| SMILES | cytotoxicity at 70.5 h |
| --- | --- |
| COCC(=O)Nc1ccc(Sc2nncn2C)c(Cl)c1 | 10.4% |
| CN(C)[C@@H]1CCN(c2ncc(F)cn2)[C@H]1Cc1cccnc1 | 17.3% |
| Cc1nn(C)c2nc(C3CC3)c(Cl)c(C(=O)O)c12 | 0.618% |
| O=S(=O)(N1CCCCCC1)N1CCN(Cc2ccc(F)cc2Br)CC1 | -4.85% |
| Cc1cccc(CN2C[C@@H](CN3CCCN(C)CC3)[C@@H](CO)C2)n1 | 26.4% |
| CS(=O)(=O)CCS(=O)(=O)Cc1cc(Cl)c2c(c1)OCCCO2 | -5.05% |
| COc1ccc(C)cc1CCNS(=O)(=O)c1ccc2c(c1)CCC(=O)N2 | -18.5% |
| Nc1cc(-c2cccc3c2CCNC3)ncn1 | -6.17% |
| CCN(CC)Cc1ccc(C(=O)N2CCCC2Cn2cc(C)cn2)o1 (stereo not drawn) | 2.44% |
| CCc1nnc(CN(C)Cc2cccc(C(=O)Nc3cnn(C)c3)c2)o1 | 3.92% |
| NC(=O)c1ccc(CN2CCC(N3CCCC3)CC2)cc1 | -2.01% |
| CC(C)c1cc(C2CCCN2Cc2nc(-c3ccco3)no2)no1 (stereo not drawn) | -2.57% |
| CN(C)c1ccc(C(O)CNS(=O)(=O)C2CC2)cc1 (stereo not drawn) | 10.1% |
| CCn1ccnc1CN1CCCN(C(=O)c2cc[nH]n2)CC1 | 0.0306% |
| CS(=O)(=O)N1CC[C@H]2OCC[C@@]2(C(=O)NCC2CC2)C1 | -7.08% |
| CCc1nc(NC(=O)N(C)Cc2ccoc2)nn1C | -1.12% |
| O=C(CSCCN1CCOCC1)N1CCCCCC1 | 29.9% |
| CC(C)(C)c1nc(NS(=O)(=O)c2cccc(F)c2)no1 | -8.66% |
| NC(=O)C1CCN(C(=O)c2ccn(-c3ccc(F)cc3)n2)CC1 | 7.95% |
| Fc1cccc2c1CCC2NCc1cnc(N2CCOCC2)nc1 (stereo not drawn) | -1.25% |
| Cc1nn(C)c(C)c1C1CCCN1CC(=O)N(C)c1nccs1 (stereo not drawn) | -3.66% |
| Cc1nc(N2CCCC(N3CCCC3)C2)c2cnn(C)c2n1 (stereo not drawn) | -5.42% |
| Cc1cc(C(=O)N2CCCC(C)C2)ccc1NCc1nc(C2CC2)no1 (stereo not drawn) | -13.1% |

| SMILES | cytotoxicity at 70.5 h |
| --- | --- |
| CC(C)(C)c1cc(CN2CC[C@@H](NC(=O)c3cccnc3)[C@H](O)C2)n[nH]1 | 0.738% |
| OCC1(O)CCN(c2ccnc3c(C(F)(F)F)cccc23)CC1 | -3.41% |
| CN1CCO[C@@H]2CN(C(=O)c3ccc4ncccc4c3)CC[C@@H]2C1 | -8.09% |
| Cc1cccnc1N1CCN(C(=O)CCc2cn3ccccc3n2)CC1 | 15.3% |
| CCOCCC(=O)NCC(C)c1ccsc1 (stereo not drawn) | -5.93% |
| CCC(=O)N1CCc2[nH]cnc2C12CCN(C(=O)c1snnc1C)CC2 | -10.6% |
| COCCN1CCCC1Cn1nc(C)cc1C (stereo not drawn) | 8.46% |
| CC(C)c1cc(C(=O)N2CCOC3(CCCC3)C2)no1 | -21.7% |
| COCC(=O)N1CCCC1c1nc(C)c2c(n1)N(CC(C)C)C(=O)CC2 (stereo not drawn) | -6.03% |
| COc1cc(C2SC(C)=Nc3c2c(=O)[nH]n3C2CCCC2)ccc1O (stereo not drawn) | -9.1% |
| Cc1nc(CN2CCCC(C)(CO)C2)no1 (stereo not drawn) | -4.42% |
| COC(=O)C(NC(=O)c1cc(C)ccc1C)c1cccnc1 (stereo not drawn) | -0.114% |
| O=C(C[C@@H]1COC[C@H]2CN(Cc3ccc(F)cc3)C[C@@H]12)N1CCOCC1 | 21.2% |
| c1cnc(NCc2n[nH]c3c2CCN(Cc2cccnc2)C3)nc1 | -12.3% |
| COC(=O)CC(c1ccc(O)c(Cl)c1)c1oc(C)cc(=O)c1O (stereo not drawn) | 1.45% |
| COCCN1CCCC(O)(CN2CCN(Cc3ccncc3)CC2)C1=O (stereo not drawn) | -8.23% |
| Fc1cccc(-c2nnn3c2COC(CNc2ncccn2)C3)c1 (stereo not drawn) | 26.8% |
| CN(C)Cc1cncc2c1CCN(Cc1cnn(C)c1)C2 | -0.555% |
| N#CCCN(Cc1cccnc1)C(=O)Cc1ccc(-n2cnnn2)cc1 | -10.6% |
| O=C(c1ccncc1)N1CCN(Cc2cccnc2)c2ncccc2C1 | -8.91% |
| Cc1cc(C(=O)NCc2ccnc(OCC(F)(F)F)c2)on1 | 16.2% |
| O=C(c1ccncc1)N1CCCn2nnc(COCCO)c2C1 | -5% |
| COC(=O)CCCn1ccnc1-c1ccc(OC)c(F)c1F | 3.06% |

| SMILES | cytotoxicity at 70.5 h |
| --- | --- |
| CCC(=O)N1CCCC(c2cc(Nc3ncccn3)nc(C)n2)C1 (stereo not drawn) | -5.83% |
| O=C(NCc1nnc2n1CCCC2)N(Cc1ccccc1F)C1CC1 | -11.1% |
| Cc1nc(NC(=O)c2c(-n3cnnn3)sc(C)c2C)sc1C | -8.41% |
| CCn1nc(C(=O)N2CCCC(n3cncn3)C2)ccc1=O (stereo not drawn) | -14.8% |
| COCCc1noc(-c2ccc(=O)[nH]c2)n1 | 2.52% |
| CCc1cc(NC(=O)c2cccc(OCC(F)(F)F)n2)[nH]n1 | -2.9% |
| Cc1ccc(-n2ccnc2)c(C(=O)NCCOCC2CCCO2)c1 (stereo not drawn) | -1.48% |
| CCc1ccc(CN2C[C@@H](c3nc(C)no3)C[C@H]3OCC[C@H]32)o1 | -3.87% |
| CC(=O)NCc1cc2n(n1)CCN(Cc1cccc(CCN)c1)C2 | -2.57% |
| Cn1cc(C#N)cc1C(=O)NC1(C#N)CCSCC1 | -4.89% |
| COc1ccc(C)cc1C(C(=O)O)N1CCN(Cc2ccccn2)CC1 (stereo not drawn) | 3.54% |
| CCOCCNC(=O)c1cc(Br)c2c(c1)OCCO2 | -10.7% |
| CN(C)c1nccnc1C1CCN(c2cnccn2)CC1 | -3.32% |
| CCNC(=O)[C@@H]1C[C@@H](NC(=O)Cc2cc(C)no2)CN1Cc1ccsc1 | -12.7% |
| CNc1cc(CNC(=O)c2ccccn2)nc(-c2ccncc2)n1 | 11.9% |
| CCn1cnnc1CNC(=O)NC(C)c1cccs1 (stereo not drawn) | -14.5% |
| COCc1ccccc1C(=O)NS(=O)(=O)c1ccc2c(c1)CCC(=O)N2 | -9.29% |
| O=C(c1ccsc1)N1C[C@H]2CCC[C@@]2(COCc2cccnc2)C1 | 22.5% |
| CN1CCN2CCN(C(=O)c3cc4ncc(CCO)cn4n3)CC2C1 (stereo not drawn) | -15.2% |
| COc1ccncc1NC(=O)c1[nH]nc(C(C)C)c1Br | -3.93% |
| CC(C)OCCCNC(=O)CN1CCN(c2nccs2)C(C)C1 (stereo not drawn) | 35.5% |
| Cc1n[nH]c(=O)c2c(NC(=O)CN3CCCC(C(F)(F)F)C3)oc(C)c12 (stereo not drawn) | 15.7% |
| Cc1ncsc1CN1CCn2nc(CCC(=O)N3CCCC3)cc2C1 | -6.96% |

| SMILES | cytotoxicity at 70.5 h |
| --- | --- |
| CCOc1ncccc1CNC(=O)c1cc(C)on1 | -8.59% |
| CCn1c(C)cc(C(=O)N2CCC(NC(=O)c3ccc(C)o3)CC2)c1C | -89.5% |
| Cc1nc(CN2CCCC(CCc3ccc(F)c(F)c3)C2)c[nH]1 (stereo not drawn) | 19.5% |
| Cc1ccsc1CNC1CCCN(Cc2noc(C3CC3)n2)C1 (stereo not drawn) | -2.45% |
| CC(NC(=O)NCCCN1CCCC1=O)c1ccc(Cl)s1 (stereo not drawn) | -14.2% |
| COc1ccc(S(=O)(=O)NC(=O)c2cscn2)cc1C | -13.6% |
| CCOCC1CN(C(=O)COc2ccccc2)Cc2cn(C)nc21 (stereo not drawn) | -4% |
| CN1CCN(C(=O)Cn2nc(C(F)(F)F)c(Br)c2C2CC2)CC1 | -10.9% |
| Cc1ccc(CNc2cc3c(cc2Cl)NC(=O)CO3)cc1C | -5.39% |
| COc1ccc(CN(C)c2ncc(S(N)(=O)=O)s2)c(OC)c1 | -4.13% |
| O=C1CC2(CCN(Cc3cccs3)C2)CN1c1cccc(F)c1 (stereo not drawn) | -11% |
| Cc1cccc(OCC2CCCN(C(=O)CN(C)C3CCNCC3)C2)c1 (stereo not drawn) | 11.3% |
| Cc1nc(C)n(C2CCCN(C(=O)c3cccc4[nH]ncc34)C2)n1 (stereo not drawn) | -6.19% |
| Cc1cc(C)n(CC2CCCCN2CC(=O)N(C)Cc2ccco2)n1 (stereo not drawn) | 6.64% |
| CNC(=O)[C@H]1C[C@@H]2CN(C(=O)c3ccncc3)C[C@@H]2N1S(C)(=O)=O | 22.4% |
| NC(=O)Nc1cccc(C(=O)N(Cc2ccncc2)C2CC2)c1 | -10.2% |
| O=C(Nc1nnn[nH]1)c1ccc(I)c(F)c1 | 4.13% |
| Cc1nc(CCNC(=O)NCC(c2ccco2)N(C)C)cs1 (stereo not drawn) | -14.9% |
| COc1ccc(CN2CCC3(CC2)NC(=O)CC3c2cnn(C)c2)cc1 (stereo not drawn) | -8.08% |
| CN(C)CC1CN(Cc2nc(-c3cccnc3)no2)CCO1 (stereo not drawn) | -12.3% |
| Cc1nn(C)c2nc(N3CCCC3c3nccs3)sc12 (stereo not drawn) | -12.1% |
